Laboratory results reported in US12233073B2, “Skin care formulations and skin cancer treatment” (Regents of the University of Minnesota, priority 2017, dated 2025).
Where two headings read alike, the source gives them in different places.

Columns and labels:
elastin = assay: Induction of elastin; format: cell-based; conditions: for Rating (Elastin): first rating in cell
Description: (§1) Higher elastin and collagen activity is indicative of anti-wrinkling or anti-aging effects. Activation of the antioxidant response element (ARE) pathway was also evaluated. The NF-E2-related factor (Nrf2) is a critical transcription factor in oxidative stress signaling. Nrf2 binds to the ARE and serves as a master regulator in cellular defense pathways. The ARE pathway mediates the transcriptional induction of a battery of genes that help to protect the cells against oxidative damage. Activation of the ARE promoter leads to more endogenous antioxidants and cell detoxification.

[1] = tested on: antioxidant response element (ARE) pathway; assay: Activation of the antioxidant response element (ARE) pathway; format: cell-based; conditions: for Rating (ARE): third rating in cell
Description: as §1

collagen 1A = assay: Induction of collagen 1A; format: cell-based; conditions: for Rating (Collagen 1A): second rating in cell
Description: as §1

UV-induced ROS = assay: Inhibition of the production of UV-induced reactive oxygen species (ROS); format: cell-based; conditions: for inhibition at 10 µg/mL: read-out: % inhibition of UV-induced ROS
Description: The effect of the compounds of EXAMPLE 20 on inhibition of the production of reactive oxygen species (ROS), which can damage skin cells, was evaluated.

[2] = tested on: nuclear factor kappa B (NF-κB) pathway; assay: Cell-based assay of the nuclear factor kappa B (NF-κB) pathway; conditions: for Rating (inhibition of NF-κB): one rating per compound; for inhibition at 10 µg/mL / inhibition at 50 µg/mL / inhibition at 100 µg/mL: read-out: % inhibition of NF-κB
Description: The effect of adding anti-aging and/or anti-wrinkling compounds to the skin care formulation of EXAMPLE 18 on nuclear factor kappa B (NF-κB) mediated-inflammation was evaluated.
A cell-based assay was performed to determine the effective of each of these compounds. The assay involved the effect of each compound on the nuclear factor kappa B (NF-κB) pathway. The inhibition of NF-κB is indicative of a protective effect against aging and wrinkling.

Row | Structure (SMILES) | fold induction at 10 µg/mL (elastin; final dose 10 μg/ml) | fold induction at 50 µg/mL (elastin; final dose 50 μg/ml) | fold induction at 100 µg/mL (elastin; final dose 100 μg/ml) | fold induction at 10 µg/mL ([1]; final dose 10 μg/ml) | fold induction at 50 µg/mL ([1]; final dose 50 μg/ml) | fold induction at 100 µg/mL ([1]; final dose 100 μg/ml) | Rating (ARE) [1] | fold induction at 10 µg/mL (collagen 1A; final dose 10 μg/ml) | fold induction at 50 µg/mL (collagen 1A; final dose 50 μg/ml) | fold induction at 100 µg/mL (collagen 1A; final dose 100 μg/ml) | Rating (Collagen 1A) (collagen 1A) | inhibition at 10 µg/mL (UV-induced ROS; final dose 10 μg/ml) [%] | % inhibition of NF-κB ([2]; final dose 10 μg/ml) | % inhibition of NF-κB ([2]; final dose 50 μg/ml) | Rating (inhibition of NF-κB) [2] | inhibition at 50 µg/mL ([2]; final dose 50 μg/ml) [%] | inhibition at 100 µg/mL ([2]; final dose 100 μg/ml) [%] | inhibition at 100 µg/mL [2] [%] | Rating (Elastin) (elastin) | further results
1 | O=c1c(-c2ccc(O)cc2)coc2cc(O)c(O)cc12 [HI-4, 6,7,4′-trihydroxyisoflavone] | 2 | 2 | < 1.3 | 2 | < 1.3 | < 1.3 | ****, ****, **** (very high activity (>76%)) | 2 | < 1.3 | < 1.3 | ****, ****, **** (very high activity (>76%)) | > 70 | none | none | none |  |  |  |  | % inhibition of NF-κB ([2]; final dose 100 μg/ml): none
2 | O=c1c(O)c(-c2ccc(O)cc2)oc2cc(O)ccc12 [HI-7, 3,7,4′-trihydroxyflavone] | 3 | 2 | < 1.3 | 2 | 1.5 | < 1.3 | ****, ****, **** (very high activity (>76%)) | 3 | < 1.3 | < 1.3 | ****, ****, **** (very high activity (>76%)) | ~50 |  |  | none | 52 | 66 |  |  | inhibition at 10 µg/mL ([2]; final dose 10 μg/ml): 9%
3 | O=C1C[C@@H](c2ccc(O)cc2)Oc2cc(O)cc(O)c21 [HI-5, naringenin] | 1.5 | < 1.3 | 1.5 | 2 | 2 | 2 | **** (very high activity (>76%)) | < 1.3 | < 1.3 | 1.3 | * (low activity (20-30%)) | ~25 | none |  | none | 56 | 62 |  |  | 
4 | COc1cc(-c2oc3cc(O)cc(O)c3c(=O)c2O)ccc1O [HI-10, isorhamnetin] | 1.7 | 1.8 | 4 | 2 | < 1.3 | < 1.3 | **** (very high activity (>76%)) | 1.4 | < 1.3 | < 1.3 | ** (medium activity (31-55%)) | ~50 |  |  |  |  |  | 43 |  | inhibition at 10 µg/mL [2]: 45%; inhibition at 50 µg/mL [2]: 52%
5 | O=c1c(O)c(-c2ccc(O)cc2)oc2c(O)c(O)cc(O)c12 [HI-12, herbacetin] | 2 | < 1.3 | 2 | < 1.3 | < 1.3 | < 1.3 | none | < 1.3 | < 1.3 | < 1.3 | none | ~50 | none | none | none |  | 49 |  |  | 
6 | C=CCc1ccc(O)c(-c2cc(CC=C)ccc2O)c1 [HI-3, magnolol] | < 1.3 | 4 | 2.8 | < 1.3 | < 1.3 | < 1.3 | none | < 1.3 | < 1.3 | < 1.3 | none |  |  |  | **** (very high activity (>76%)) |  |  | > 90 | none | inhibition at 10 µg/mL (UV-induced ROS): ~10%; Cytotoxicity remark in Rating column ([2]; NF-κB cell-based assay): slightly cytotoxic; inhibition at 10 µg/mL [2]: > 90%; inhibition at 50 µg/mL [2]: > 90%
7 | O=c1c(O)c(-c2ccc(O)c(O)c2)oc2cc(O)c(O)c(O)c12 [HI-9, quercetagetin] |  |  |  |  |  |  | none |  |  |  | *** (high activity (56-75%)) |  | none | none | none and ** (medium activity (31-55%)) |  |  | 20 | none | inhibition at 10 µg/mL (UV-induced ROS): > 70%
8 | O=c1cc(-c2ccc(O)c(O)c2)oc2cc(O)cc(O)c12 [HI-11, luteolin] | 1.8 | < 1.3 | < 1.3 | 1.5 | 5 | 2 | ****, ****, **** (very high activity (>76%)) | 2 | < 1.3 | < 1.3 | ****, ****, **** (very high activity (>76%)) | > 70 |  |  | ** (medium activity (31-55%)) | > 90 | > 90 |  |  | inhibition at 10 µg/mL ([2]; final dose 10 μg/ml): 54%
9 | O=c1c(O)c(-c2cc(O)c(O)c(O)c2)oc2cc(O)cc(O)c12 [HI-8, myricetin] | < 1.3 | 3 | 2.8 | < 1.3 | < 1.3 | < 1.3 | none | < 1.3 | < 1.3 | < 1.3 | none | > 70 | none |  | none | 39 | 44 |  |  | 
10 | Oc1cc(O)c2cc(O)c(-c3cc(O)c(O)c(O)c3)[o+]c2c1 [HI-2, delphiniden] |  |  |  |  |  |  | none |  |  |  | none |  | none | none | none |  |  |  | none | Elastin induction (elastin; final dose 10 μg/ml): 1.5x; Elastin induction (elastin; final dose 50 μg/ml): — (The dash (—) indicates <1.3x or no induction); Elastin induction (elastin; final dose 100 μg/ml): — (The dash (—) indicates <1.3x or no induction); ARE activation ([1]; final dose 10 μg/ml): — (The dash (—) indicates <1.3x or no induction); ARE activation ([1]; final dose 50 μg/ml): — (The dash (—) indicates <1.3x or no induction); ARE activation ([1]; final dose 100 μg/ml): 1.7x; Collagen 1A induction (collagen 1A; final dose 10 μg/ml): — (The dash (—) indicates <1.3x or no induction); Collagen 1A induction (collagen 1A; final dose 50 μg/ml): — (The dash (—) indicates <1.3x or no induction); Collagen 1A induction (collagen 1A; final dose 100 μg/ml): — (The dash (—) indicates <1.3x or no induction); % inhibition of UV-induced ROS (UV-induced ROS; final dose 10 μg/ml): >70%; % inhibition of NF-κB ([2]; final dose 100 μg/ml): none
11 | O=C(/C=C/c1ccc(O)c(O)c1)OCCc1ccccc1 [HI-6, caffeic acid phenylethyl ester] | < 1.3 | < 1.3 | 2 | < 1.3 | < 1.3 | < 1.3 |  | < 1.3 | < 1.3 | < 1.3 | none, none, N/A |  |  |  | *** (high activity (56-75%)) |  |  | > 90 | none, none, N/A | inhibition at 10 µg/mL (UV-induced ROS): > 70%; inhibition at 10 µg/mL [2]: 64%; inhibition at 50 µg/mL [2]: > 90%
12 | O=c1c(-c2ccc(O)c(O)c2)coc2cc(O)ccc12 [HI-1, 7,3,4′-trihydroxyisoflavone] | 1.5 | 2 | < 1.3 | < 1.3 | 3 | 5 |  | 1.5 | 3 | < 1.3 | **, **, N/A (medium activity (31-55%)) | > 70 | none |  | none | 14 | 40 |  |  | 
